Experimental data published in ChEMBL document CHEMBL5244260, “Aldose reductase and protein tyrosine phosphatase 1B inhibitors as a promising therapeutic approach for diabetes mellitus” (Eur J Med Chem, 2020).
pIC50, pKi: −log10 of the molar value.

Assays:
[1] = molecular target: T1, Tyrosine-protein phosphatase non-receptor type 1 (Homo sapiens, UniProt P18031); assay: Inhibition of PTP1B (unknown origin)
T1 sequence (P18031 whole entry): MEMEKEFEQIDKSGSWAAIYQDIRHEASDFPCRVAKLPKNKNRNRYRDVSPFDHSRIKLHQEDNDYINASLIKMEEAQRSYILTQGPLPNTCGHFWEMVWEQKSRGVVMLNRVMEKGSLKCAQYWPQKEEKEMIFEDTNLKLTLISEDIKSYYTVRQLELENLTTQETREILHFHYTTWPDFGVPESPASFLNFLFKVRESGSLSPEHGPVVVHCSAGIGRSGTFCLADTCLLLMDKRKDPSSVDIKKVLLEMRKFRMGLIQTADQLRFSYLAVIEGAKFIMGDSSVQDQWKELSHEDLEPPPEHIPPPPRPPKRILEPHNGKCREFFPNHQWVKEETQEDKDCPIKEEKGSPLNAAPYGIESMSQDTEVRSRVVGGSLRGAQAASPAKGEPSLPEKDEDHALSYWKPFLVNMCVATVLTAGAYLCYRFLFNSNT

[2] = molecular target: T1, Tyrosine-protein phosphatase non-receptor type 1; assay: Inhibition of human PTP1B (1 to 411 residues) expressed in Escherichia coli BL21 (DE3) using GNGDpYMPMSPKS as phosphopeptide substrate incubated for 30 mins by malachite green reagent assay
[3] = Inhibition of ALR2 in calf lens using D,L-glyceraldehyde as substrate in presence of NADPH by spectrophotometric assay; format: tissue-based, Bos taurus
[4] = Inhibition of ALR2 in rat lens using D,L-glyceraldehyde as substrate in presence of NADPH; format: tissue-based
[5] = organism: Homo sapiens; assay: Selectivity ratio of Ki for PTP1B (unknown origin) to Ki for TCPTP (unknown origin)
[6] = molecular target: T1, Tyrosine-protein phosphatase non-receptor type 1; assay: Inhibition of PTP1B (unknown origin) assessed as inhibition constant
[7] = Inhibition of ALR2 in Sprague-Dawley rat lens using D,L-glyceraldehyde as substrate preincubated for 10 mins in presence of NADPH followed by substrate addition and measured after 5 mins by spectrophotometric assay; format: tissue-based
[8] = molecular target: Aldo-keto reductase family 1 member B1 (Homo sapiens, UniProt P15121); assay: Inhibition of ALR2 (unknown origin)
[9] = organism: Homo sapiens; assay: Selectivity ratio of IC50 for human PTP1B (1 to 321 residues) to IC50 for human CD45 (564 to […] residues)
[10] = molecular target: T1, Tyrosine-protein phosphatase non-receptor type 1; assay: Inhibition of human PTP1B (1 to 321 residues) expressed in Escherichia coli using FDP as substrate
[11] = molecular target: T2, Receptor-type tyrosine-protein phosphatase C (Homo sapiens, UniProt P08575); assay: Inhibition of human CD45 (564 to […] residues) expressed in Escherichia coli using FDP as substrate incubated for 10 min
T2 sequence (P08575 whole entry): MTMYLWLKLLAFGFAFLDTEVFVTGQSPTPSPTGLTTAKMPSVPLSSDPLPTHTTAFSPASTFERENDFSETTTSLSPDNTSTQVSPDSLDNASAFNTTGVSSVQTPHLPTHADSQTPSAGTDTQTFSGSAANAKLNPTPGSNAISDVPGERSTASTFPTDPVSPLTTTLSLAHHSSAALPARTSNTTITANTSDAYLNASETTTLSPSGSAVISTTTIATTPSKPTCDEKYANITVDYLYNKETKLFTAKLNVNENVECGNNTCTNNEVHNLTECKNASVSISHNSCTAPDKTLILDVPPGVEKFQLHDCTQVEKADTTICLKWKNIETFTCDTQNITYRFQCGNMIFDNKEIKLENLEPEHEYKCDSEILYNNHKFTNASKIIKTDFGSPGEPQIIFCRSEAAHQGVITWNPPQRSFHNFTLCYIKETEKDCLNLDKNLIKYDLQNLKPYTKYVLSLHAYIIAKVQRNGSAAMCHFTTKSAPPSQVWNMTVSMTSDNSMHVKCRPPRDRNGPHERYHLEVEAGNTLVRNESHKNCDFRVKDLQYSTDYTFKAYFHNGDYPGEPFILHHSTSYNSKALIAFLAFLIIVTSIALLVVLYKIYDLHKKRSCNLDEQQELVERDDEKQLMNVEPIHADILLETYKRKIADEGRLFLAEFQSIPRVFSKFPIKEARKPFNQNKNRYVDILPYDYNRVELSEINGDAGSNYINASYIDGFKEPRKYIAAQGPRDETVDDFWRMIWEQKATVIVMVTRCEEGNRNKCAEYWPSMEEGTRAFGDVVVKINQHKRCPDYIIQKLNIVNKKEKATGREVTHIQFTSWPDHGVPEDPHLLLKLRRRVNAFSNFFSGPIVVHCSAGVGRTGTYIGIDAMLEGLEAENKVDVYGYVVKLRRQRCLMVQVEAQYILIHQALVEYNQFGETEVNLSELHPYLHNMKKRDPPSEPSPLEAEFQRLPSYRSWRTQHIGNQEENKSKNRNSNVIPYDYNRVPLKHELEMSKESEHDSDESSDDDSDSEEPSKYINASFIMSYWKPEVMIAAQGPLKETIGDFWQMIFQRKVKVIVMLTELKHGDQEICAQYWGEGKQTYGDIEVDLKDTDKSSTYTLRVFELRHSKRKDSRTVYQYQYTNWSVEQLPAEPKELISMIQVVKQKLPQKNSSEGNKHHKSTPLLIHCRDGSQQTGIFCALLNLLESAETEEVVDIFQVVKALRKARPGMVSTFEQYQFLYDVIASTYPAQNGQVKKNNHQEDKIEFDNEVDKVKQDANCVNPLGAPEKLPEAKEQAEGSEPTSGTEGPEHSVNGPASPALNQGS

[12] = molecular target: T1, Tyrosine-protein phosphatase non-receptor type 1; assay: Inhibition of human PTP1B (1 to 298 residues) expressed in Escherichia coli using FDP as substrate by microplate reader
[13] = molecular target: T1, Tyrosine-protein phosphatase non-receptor type 1; assay: Inhibition of PTP1B (unknown origin) using OMFP as substrate by fluorescence assay

CCc1cc(CC(NC(C)=O)C(=O)NCCCCC(=O)N[C@@H](CCSC)C(=O)O)ccc1N(C(=O)C(=O)O)c1ccccc1C(=O)O (stereo not given in full)
pIC50 [1]: 7.11

Oc1c(Br)cc(-c2ncc(-c3ccccc3)s2)c(Br)c1O
pIC50 [1]: 6.27

COc1ccc2cc(O)c(N3CC(=O)NS3(=O)=O)cc2c1
pIC50 [2]: 7.10

COc1cccc2c1C=CC1CC(=O)N(C/C=C/C(=O)O)N=C21 (stereo not given)
pIC50 [3]: 5.37

CCCCCCCCCCCCCCOc1ccccc1NC(=O)c1cccc(F)c1C(=O)O
pIC50 [1]: 6.97

CC(C(=O)O)N1C(=O)C(=O)N(Cc2cccc([N+](=O)[O-])c2)C1=O (stereo not given)
pIC50 [4]: 5.70

O=C(O)C(=O)c1sc2c(c1C(=O)O)CCN[C@@H]2CNCc1ccc(O)cc1
pIC50 [1]: 6.70

CCCCCCCC/C(=C\Cn1oc(=O)[nH]c1=O)c1cccc(OCc2nc(-c3ccc(C(F)(F)F)cc3)oc2C)c1
pIC50 [1]: 6.40

COC(=O)c1c(O)cccc1OC/C=C/c1cccc(-c2onc(C(=O)O)c2CO)c1
Ratio Ki [5]: 20
pKi [6]: 6.04

CCCCCCCCCCCCCCOc1ccccc1NC(=O)c1c(C(=O)O)cc(Cl)c(Cl)c1Cl
pIC50 [1]: 6.74

O=c1c(/C=C/c2ccc(O)cc2)nc2ccc(F)cc2n1-c1cnn(O)c1
pIC50 [7]: 6.97

Cc1cccc(-c2nn(-c3ccccc3)cc2/C=C2\SC(=S)N(c3ccc(C(=O)NCC(=O)O)cc3)C2=O)c1
pIC50 [8]: 7.22

CCCCCCCC/C(=C/Cn1oc(=O)n(CC(=O)O)c1=O)c1cccc(OCc2nc(-c3ccc(C(F)(F)F)cc3)oc2C)c1
pIC50 [1]: 6.92

CCCCCNC(=O)[C@H](Cc1cccc(OCC(=O)O)c1C(=O)O)NC(=O)[C@H](Cc1ccccc1)NC(=O)Oc1ccccc1
pIC50 [1]: 6.06

O=C(Cc1ccccc1)C(Cc1ccc(C(F)(F)P(=O)(O)O)cc1)(Cc1ccc(C(F)(F)P(=O)(O)O)cc1)C(=O)Cc1ccccc1
Ratio IC50 [9]: 250
pIC50 [10]: 7.40

COc1cccc2c1C=CC1CC(=O)N(/C=C/CC(=O)O)N=C21 (stereo not given)
pIC50 [3]: 5.41

O=C(c1ccccc1)C(Cc1ccc(C(F)(F)P(=O)(O)O)cc1)(Cc1ccc(C(F)(F)P(=O)(O)O)cc1)c1ccccc1
pIC50 [10]: 8.22
pIC50 [11]: < 4.30

CCCCCCCCc1ccc(-n2c(C)ccc2-c2ccc(O[C@@H](Cc3ccccc3)C(=O)O)cc2)cc1
pIC50 [1]: 7.05

O=C(O)C(=O)Nc1sc2c(c1C(=O)O)CCN(CCc1ccccc1)C2
Ratio Ki [5]: 2

C/C(=N\NC(=S)Nc1cccc(F)c1)c1ccc2c(c1)NC(=O)CO2
pIC50 [8]: 6.72

CCCCCCCC/C(=C/Cn1oc(=O)[nH]c1=O)c1cccc(OCc2nc(-c3ccc(C(F)(F)F)cc3)oc2C)c1
pIC50 [1]: 6.70

O=P(O)(O)C(F)(F)c1ccc(C[C@@](c2ccccc2)(c2ccc(C(F)(F)P(=O)(O)O)cc2)n2nnc3ccccc32)cc1
pIC50 [12]: 7.80

CCc1cc(Br)ccc1S(=O)(=O)N(Cc1ccc(C(=O)C(F)(F)P(=O)(O)O)cc1)Cc1ccc(C(=O)C(F)(F)P(=O)(O)O)cc1
pIC50 [13]: 6.30

CC(C)OC(=O)c1cc(CC(Cc2ccc(C(F)(F)P(=O)(O)O)cc2)(C(=O)c2ccccc2)c2ccccc2)ccc1C(F)(F)P(=O)(O)O (stereo not given)
pIC50 [10]: 8.22
pIC50 [11]: < 4.30

CC(C)(C)OC(=O)COc1ccc(CC2=C(c3c[nH]c4ccccc34)c3ccccc3C(=O)C2=O)cc1
pIC50 [1]: 6.19

C/C(=C\Cn1oc(=O)[nH]c1=O)c1cccc(OCc2nc(-c3ccc(C(F)(F)F)cc3)oc2-c2ccccc2)c1
pIC50 [1]: 6.52
